Measured values as given in patent publication US20190202774A1, “BIARYL COMPOUNDS AS ANTIMICROBIAL AND CHEMOTHERAPEUTIC AGENTS” (priority 2015, published 2019).
≈ marks a conversion by molar mass, not a printed value. Entries after “also recorded” stand apart in the source; their conditions may differ. Where two headings read alike, the source gives them in different places.

Key:
[1] = system: MRSA strains USA300, 0606, 0608, 0634, 0641, and 0646; assay: MIC/MBC against six MRSA strains (variants of C58/C59, pH, DMSO); type: cell-based, Staphylococcus aureus
Procedure: Six MRSA strains, USA300, 0606, 0608, 0634, 0641, and 0646 were chosen based on their activity against biaryl compounds and vancomycin to determine structure-activity relationship of biaryl compounds. The effect of phenolic group on the activity of biaryl compounds was tested by modifying C59. First, the phenolic group was protected by acetylation to yield an acetylated C59 (C59-2) (FIG. 7B). Additional variants of C59, in the form of sodium and lithium salts were synthesized by incubation with sodium hydroxide and lithium hydroxide (FIGS. 7C and 7D). Antimicrobial activity of these deprotonated, water-soluble sodium (C59Na) and lithium (C59Li) salts, and acetylated derivative of C59 was tested against 6 MRSA strains and compared to the parent compound, C59 (FIGS. 8A-8D). Results from this comparative experiment indicate the contribution of phenolic group/phenoxide ion to the antimicrobial activity.
Further investigation into activity of these compounds under acidic pH conditions also points towards the role of phenolic group. An effective antimicrobial should be active under a wide range of pH conditions, including the physiological pH of 7.4. Localized pH in an infection is often lower than the physiological pH, and may be as low as 5.5 (Radovic-Moreno et al., 2012). Additionally, pH varies among organs (Radovic-Moreno et al., 2012). For example, pH in the bladder or on the skin is found to be between 4.5 and 8.0, or 4.0 and 5.5, respectively (Radovic-Moreno et al., 2012). […] The activity of all biaryl compounds is enhanced by at least four- to eight-fold with reduction in pH from 7.4 to 5.5.
Water soluble sodium and lithium salts of C59 (C59Na and C59Li) and their antimicrobial activity against six MRSA strains are reported above. A sodium salt of C58 (C58Na) was prepared and evaluated efficacy of this compound against these six MRSA strains. […] The poor activity of C58Na may be a result of poor stability of C58Na compared with C59Na and C59Li.

[2] = system: human lung airway epithelial cells (16HBE)
Procedure: (§1) Finally, toxicity of biaryl compounds was tested against human lung airway epithelial cells (16HBE), human dermal fibroblasts, and J774.A1 murine macrophages using an ALAMARBLUE® Cell Viability Assay. Biaryl compounds, C58, acetylated C58 (C58-2), C59, C59-2, C59Na, and C59Li were incubated with cells for 24 hours and an ALAMARBLUE® Cell Viability Assay was performed to determine cell viability relative to untreated controls (FIGS. 13A-13C). Cell viability curves were analyzed using non-linear curve fit to yield the inhibitory concentration at median cell survival (LD50) for all cell lines (Table 3).
(§2) Next, the toxicity of lead candidates was tested against human lung airway epithelial cells (16HBE) and human dermal fibroblasts (HDF) using an alamarBlue® Cell Viability Assay.

[3] = system: E. faecalis strains 49532 and 51575; assay: MIC/MBC broth microdilution against E. faecalis; type: cell-based, Enterococcus faecalis
[4] = system: R. equi strains 701+, 701−, 703, and 5331; assay: MIC/MBC broth microdilution against R. equi; type: cell-based, Rhodococcus equi
MRSA strain USA 300 = assay: Growth curves (OD650, 18-h), MRSA USA 300; type: cell-based, Staphylococcus aureus; conditions: stationary phase USA 300, 18-h, compared with non-treated control
Procedure: The rate of bacterial growth in presence of antimicrobial candidates, C58, C59, C59Na, or 4-76, was performed using stationary phase MRSA, USA 300 and SA LL06, or S. epidermidis, M0881, and compared with SoC antimicrobial, vancomycin. In addition, these growth rates were compared with the kill kinetics described earlier (FIGS. 4 & 5). […] A reduction in bacterial growth rate, represented by a lower absorbance at OD650, can be observed with C59 and C59Na at concentrations as low as 0.125×MIC compared with non-treated control. […] However, in the kill kinetics experiments, vancomycin fails to eradicate stationary phase MRSA at concentrations up to 2×MIC. This anomaly can be explained by the different experimental conditions between the kill kinetics and growth curve experiments; bacterial samples are grown with constant shaking on an orbital shaker for a kill kinetics experiment but not for a growth curve experiment.
Finally, the antimicrobial efficacy of enantiomers of compound 4-76 were evaluated against log-phase MRSA strain USA 300, as described earlier.

[5] = system: erythrocytes from sheep blood; assay: Hemolytic activity; conditions: sheep
Procedure: Toxicity of biaryl compounds was tested against erythrocytes as well as eukaryotic epithelial, dermal, and macrophage cell lines in vitro.
Toxicity of lead antimicrobial candidates was tested against erythrocytes, as well as eukaryotic epithelial and dermal cell lines in vitro.

[6] = system: human dermal fibroblasts (HDF); conditions: human, 24 h
Procedure: as §1, §2

MRSA strain USA300 [7] = assay: Kill kinetics with planktonic log-phase MRSA; type: cell-based, Staphylococcus aureus; conditions: log-phase USA300, 24 hours
[8] = system: MRSA strains USA300 and SALL06; assay: Kill kinetics with stationary-phase MRSA; type: cell-based, Staphylococcus aureus; conditions: stationary-phase USA300 and SALL06, up to 24 hours
[9] = system: eukaryotic cell lines tested; assay: ALAMARBLUE Cell Viability Assay, LD50 quoted in text (cell line not given); conditions: 24 hours; cell line not named in the sentence (Table 3 not given)
Procedure: as §1

[10] = system: 21 S. epidermidis strains; assay: MIC90/MBC90 broth microdilution against 21 S. epidermidis strains; type: cell-based, Staphylococcus epidermidis
Text: We are currently in the process of evaluating the MICs and MBCs for 5-32.

[11] = system: seven S. pyogenes strains; assay: MIC/MBC against panel of S. pyogenes strains; type: cell-based, Streptococcus pyogenes; conditions: range over seven S. pyogenes strains
Procedure: The activity of compounds against Gram-positive pathogens, S. pyogenes and S. pneumoniae, identified through the preliminary screen (FIG. 15) was evaluated against a panel of these pathogens.

MRSA SA LL06 = assay: Growth curves (OD650, 18-h), MRSA SA LL06; type: cell-based, Staphylococcus aureus; conditions: SA LL06, 18-h
A549 = assay: Lung cancer cell survival, A549; type: cell-based; conditions: 72 hour incubation, non-linear curve fit
Procedure: (§3) The IC50 values generated using a non-linear curve fit with lung cancer cell lines, A549, H460, H2122, and H2073 are listed in Table 10. Experiments were performed using C58, C58-2, C59, C59-2, C119, and acetylated C119 (C119-2). […] Additionally, these concentrations are clinically achievable for treatment of lung cancer and a detailed structure activity relationship experiments needs to be performed to identify promising anticancer candidates.

H460 = assay: Lung cancer cell survival, H460; type: cell-based; conditions: 72 hour incubation, non-linear curve fit
Procedure: as §3

H2122 = assay: Lung cancer cell survival, H2122; type: cell-based; conditions: 72 hour incubation, non-linear curve fit
Procedure: as §3

H2073 = assay: Lung cancer cell survival, H2073; type: cell-based; conditions: 72 hour incubation, non-linear curve fit
Procedure: as §3

38 MRSA strains [12] = conditions: MH broth
[13] = system: MRSA strains SAD05 and 0632 in a biofilm; assay: MBEC High-throughput biofilm assay; type: cell-based, Staphylococcus aureus; conditions: six-hour incubation, SAD05 and 0632
MRSA strain USA300 [14] = assay: DiSC3(5) membrane permeabilization; type: cell-based, Staphylococcus aureus; conditions: 0.1 and 0.5 μg/mL
Procedure: Biaryl compounds and their analogues have been reported to be membrane active agents (Isnansetyo and Kamei, 2003 and Kamei et al., 2003). An experiment was performed to verify the membrane permeabilization activity of biaryl compound. C58 using a fluorescent dye, 3,3′-Dipropylthiacarbocyanine iodide (DiSC3(5)). The fluorescence signal from DiSC3(5) is in a quenched state when it interacts with the hydrophobic region of the cell membrane. Upon disruption of the membrane, DiSC3(5) is released and regains its fluorescent activity, which is measured as a fluorescence signal (RFU).

38 MRSA strains [15] = assay: microbe, parasite or virus in culture; conditions: Staphylococcus aureus
[16] = Rhodococcus (subgen. Prescottella) equi, strain 701+
[17] = Rhodococcus (subgen. Prescottella) equi, strain 701−
[18] = Rhodococcus (subgen. Prescottella) equi, strain 703
[19] = Rhodococcus (subgen. Prescottella) equi, strain 5331

Compound | MBC ([3]; strain 49532) [µg/mL] | MIC ([3]; strain 49532) [µg/mL] | MBC ([3]; strain 51575) [µg/mL] | MIC ([3]; strain 51575) [µg/mL] | MBC ([4]; strain 701+) [µg/mL] | MIC ([4]; strain 701+) [µg/mL] | MBC ([4]; strain 701−) [µg/mL] | MIC ([4]; strain 701−) [µg/mL] | MBC ([4]; strain 703) [µg/mL] | MIC ([4]; strain 703) [µg/mL] | MBC ([4]; strain 5331) [µg/mL] | MIC ([4]; strain 5331) [µg/mL] | lowest concentration with reduction in bacterial growth rate (lower OD650) (MRSA strain USA 300) [×MIC] | onset of hemolysis ([5]; 1 h) [µg/mL] | LD50 (inhibitory concentration at median cell survival) [9] [µg/mL] | lowest concentration with reduction in bacterial growth rate (MRSA SA LL06) [×MIC] | A549 LD50 (A549) [µM] | H460 LD50 (H460) [µM] | H2122 LD50 (H2122) [µM] | H2073 LD50 (H2073) [µM] | further results
[Na+].[Na+].[O-]c1c(Cl)cc(Cl)cc1-c1cc(Cl)cc(Cl)c1[O-] [C59Na] | 24 | 12 | 24 | 12 | 16 | 2 | 32 | 8 | 8 | 1 | 8 | 2 | 0.125 | – | – | – | – | – | – | – | activity in the absence of DMSO versus with 2.5% DMSO [1]: at least comparable activity; antimicrobial activity (MIC and MBC) compared to the parent compound [1]: enhanced activity; also recorded: superior activity over C59; 16HBE LD50 ([2]; 24-h incubation, non-linear curve fit): 30 µg/mL
C[C@@H]1[C@H](O)[C@@H](C)/C=C/C=C/C=C/C=C/C=C/C=C/C=C/[C@H](O[C@@H]2O[C@H](C)[C@@H](O)[C@H](N)[C@@H]2O)C[C@@H]2O[C@](O)(C[C@@H](O)C[C@@H](O)[C@H](O)CC[C@@H](O)C[C@@H](O)CC(=O)O[C@H]1C)C[C@H](O)[C@H]2C(=O)O [Amphotericin B, reference compound] | – | – | – | – | – | – | – | – | – | – | – | – | – | 2 | – | – | – | – | – | – | concentration resulting in 100% hemolysis ([5]; 1 h): 8 µg/mL; Fibroblasts LD50 [6]: 2.2 µg/mL; 16HBE LD50 ([2]; human, 24 h): 12.6 µg/mL
COc1c(C)cc(O)c(-c2c(O)ccc3ccccc23)c1C | – | – | – | – | – | – | – | – | – | – | – | – | – | – | – | – | – | – | – | – | melting point: 190 to 191 °C
Oc1c(Cl)cc(Cl)cc1-c1cc(Cl)cc(Cl)c1O [C59] | 16 (≈ 49.4 µM) | 8 (≈ 24.7 µM) | 16 (≈ 49.4 µM) | 8 (≈ 24.7 µM) | 4 (≈ 12.3 µM) | 2 (≈ 6.17 µM) | 16 (≈ 49.4 µM) | 2 (≈ 6.17 µM) | 8 (≈ 24.7 µM) | 2 (≈ 6.17 µM) | 4 (≈ 12.3 µM) | 2 (≈ 6.17 µM) | 0.125 | – | 40 | 0.125 | 123 | 37 | 91 | 43 | concentration of complete killing (MRSA strain USA300 [7]): 8 µg/mL; dose response of bacterial eradication (MRSA strain USA300 [7]): dose-dependent manner; lowest concentration with reduction in bacterial burden (MRSA strain USA300 [7]; compared with untreated bacteria): 0.5 µg/mL; eradication of stationary-phase bacteria [8]: continues to eradicate bacteria; MBC90 ([10]; 21 S. epidermidis strains): 12 µg/mL (≈ 37 µM); MIC90 ([10]; 21 S. epidermidis strains): 4 µg/mL (≈ 12.3 µM); MBCs [11]: 12 to 24 µg/mL; MICs [11]: 2 to 12 µg/mL; MBC90 (38 MRSA strains [12]): 6 µg/mL (≈ 18.5 µM); MIC90 (38 MRSA strains [12]): 2 µg/mL (≈ 6.17 µM)
Oc1c(Br)cc(Br)cc1-c1cc(Br)cc(Br)c1O [C58, bromophene] | – | – | 12 (≈ 23.9 µM) | 6 (≈ 12 µM) | – | – | – | – | – | – | – | – | – | > 64 | 60 | 0.125 | 120 | 42 | 98 | 32 | concentration that completely eradicates bacteria in a biofilm [13]: 16 µg/mL; membrane disruption (DiSC3(5) fluorescence) (MRSA strain USA300 [14]): positive membrane disruption; onset of hemolysis ([5]; 18 h): 16 to 20 µg/mL; MBC ([3]; Enterococcus faecalis): 12 µg/mL (≈ 23.9 µM); MIC ([3]; Enterococcus faecalis): 6 µg/mL (≈ 12 µM); MBC [4, 16]: 4 µg/mL (≈ 7.97 µM); MIC [4, 16]: 1 µg/mL (≈ 1.99 µM); MBC [4, 17]: 8 µg/mL (≈ 15.9 µM); MIC [4, 17]: 1 µg/mL (≈ 1.99 µM); MBC [4, 18]: 8 µg/mL (≈ 15.9 µM); MIC [4, 18]: 0.5 µg/mL (≈ 0.996 µM); MBC [4, 19]: 4 µg/mL (≈ 7.97 µM); MIC [4, 19]: 1 µg/mL (≈ 1.99 µM); MIC90 ([10]; Staphylococcus epidermidis): 2 µg/mL (≈ 3.99 µM); MBC ([10]; Staphylococcus epidermidis, read-out: MBC90): 8 µg/mL (≈ 15.9 µM); MIC90 (38 MRSA strains [15]): 2 µg/mL (≈ 3.99 µM); MBC (38 MRSA strains [15]; read-out: MBC90): 4 µg/mL (≈ 7.97 µM)
